We go through 5 compounds from patent US12187773B2, “Modified GIP peptide analogues” (Antag Therapeutics ApS, priority 2018, dated 2025).

One may read the IC50 as the point on the concentration scale where inhibition reaches its midpoint.

*1 amine or outer side, *2 acyl side, *3 side chain or, on linkers, in order; H or OH if unused. Where a SMILES comes first, the peptide text is derived from it. Side-chain parts run from the residue outwards. The star is where a group is joined. C16 diacid = O=C(O)CCCCCCCCCCCCCCC(=O)*; γGlu = O=C(O)[C@H](CCC(=O)[*:2])N[*:1]; AEEA = NCCOCCOCC(=O)O

Common to all, as to type: cell-based
Assay [1] has as its target T1, human GIP receptor (Homo sapiens, UniProt P48546).
T1 sequence (P48546 22-466): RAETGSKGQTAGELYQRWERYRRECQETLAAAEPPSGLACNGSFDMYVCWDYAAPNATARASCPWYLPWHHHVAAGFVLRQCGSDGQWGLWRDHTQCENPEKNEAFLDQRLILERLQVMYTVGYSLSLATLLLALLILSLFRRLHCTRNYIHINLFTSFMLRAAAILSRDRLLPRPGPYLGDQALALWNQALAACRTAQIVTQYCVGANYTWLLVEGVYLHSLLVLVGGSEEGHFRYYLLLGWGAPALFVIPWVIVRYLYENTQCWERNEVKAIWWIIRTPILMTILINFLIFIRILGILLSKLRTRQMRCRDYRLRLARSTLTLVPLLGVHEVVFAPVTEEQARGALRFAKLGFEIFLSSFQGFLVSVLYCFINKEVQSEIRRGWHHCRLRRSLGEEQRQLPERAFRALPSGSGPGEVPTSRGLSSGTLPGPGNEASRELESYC
Put plainly: cAMP accumulation, antagonism (DiscoveRx HitHunter cAMP XS assay). Further details: host or cells: COS-7 (transient, calcium phosphate; pCMV-Script vector). Conditions: for cAMP antagonism, % inhib: COS-7 cells, % inhibition of Emax. The protocol: Transient transfected COS-7 cells expressing the human GIP receptor were seeded in white 96-well plates with a density of 3.5*10^4/well. The day after, the cells were washed twice with Hepes buffered saline (HBS) buffer and incubated with HBS and 1 mM 3-isobutyl-1-methylxanthine (IBMX) for 30 min at 37° C. To test for agonistic properties, ligands were added and incubated for 30 min at 37° C. In order to test for antagonistic properties, the cells were preincubated with the antagonists for 10 min prior to the addition of the agonist and subsequent incubated for 20 additional min. The HitHunter™ cAMP XS assay (DiscoveRx) was carried out according to the manufacturer's instructions.
In order to develop a GIP receptor antagonist with improved antagonistic properties, individual amino acid substitutions were conducted on GIP(3-30)NH2 and in particular at positions: 16, 18, 30 or 3, 16, 18, 30. The obtained peptides were lipidated at position 18 directly or via a linker. Both the agonistic and antagonistic profiles of the compounds were tested in cAMP accumulation experiments done in transiently transfected COS-7 cells expressing the human GIP receptor. To investigate if these mutated analogues still retained their antagonistic properties, their ability to inhibit a GIP-mediated cAMP response corresponding to 50-80% of maximum activation was examined.
In general terms: cAMP levels reflect the balance of adenylyl cyclase and phosphodiesterase activity.

The target in assay [2] is T1, human GIP receptor. Description: cAMP accumulation, agonism (DiscoveRx HitHunter cAMP XS assay). Also noted: host or cells: COS-7 (transient, calcium phosphate; pCMV-Script vector). Particulars: for Emax: COS-7, read-out: cAMP agonism, Emax; for cAMP agonism, Emax: Table 1B, DiscoveRx, COS-7 cells. Put shortly: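 cAMP accumulation measured by HitHunter cAMP XS in COS-7 cells transiently expressing human GIP receptor, after 30 min in HBS with 1 mM IBMX at 37 °C. Antagonists preincubated 10 min before GIP giving 50-80% of maximum, then 20 min more; agonist mode used 30 min ligand exposure.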

In assay [3] the target is T1, human GIP receptor. Put plainly: cAMP antagonism (CisBio cAMP Dynamic 2 HTRF assay). Also noted: pCMV-Script vector. Particulars: Table 1C, CisBio, HEK-293 cells; for IC50: cAMP antagonism, nM (IC50), agonist GIP1-42 at EC50. Put shortly: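 Four-parameter fits of cAMP dose-response gave pIC50. cAMP fall was quantified by HTRF competition, ratio 665/620 nm after 60 min at room temperature, against a cAMP standard curve.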
(In general: Time-resolved FRET reads energy transfer from a long-lived donor to a nearby acceptor.)

Assay [4] addresses T1, human GIP receptor. Description: cAMP agonism (CisBio cAMP Dynamic 2 HTRF assay). Particulars: HEK293, read-out: cAMP agonism, % Efficacy, Table 1C, HEK-293 cells. The method, then: To test for agonistic properties at the GIP receptor, compounds were diluted and added to cells as described above and incubated for 30 min at 37° C. The resulting increase in intracellular cAMP was determined using the CisBio cAMP Dynamic 2 HTRF Assay Kit as described above.

Where [5] appears, read: cAMP antagonism, nM (IC50), Table 1B, DiscoveRx, transiently transfected COS-7 cells.

Turning to `CC[C@H](C)[C@H](NC(=O)[C@H](CO)NC(=O)[C@H](Cc1ccc(O)cc1)NC(=O)[C@H](CC(=O)O)NC(=O)[C@H](CO)NC(=O)[C@@H](NC(=O)[C@H](Cc1ccccc1)NC(=O)[C@@H](NC(=O)CNC(=O)CN)[C@@H](C)O)[C@@H](C)CC)C(=O)N[C@@H](C)C(=O)N[C@@H](CCSC)C(=O)N[C@@H](CC(=O)O)C(=O)N[C@@H](CCCNC(=N)N)C(=O)N[C@H](C(=O)N[C@@H](CCCCNC(=O)COCCOCCNC(=O)COCCOCCNC(=O)CC[C@H](NC(=O)CCCCCCCCCCCCCCC(=O)O)C(=O)O)C(=O)N[C@@H](CCC(N)=O)C(=O)N[C@@H](CCC(N)=O)C(=O)N[C@@H](CC(=O)O)C(=O)N[C@@H](Cc1ccccc1)C(=O)N[C@H](C(=O)N[C@@H](CC(N)=O)C(=O)N[C@@H](Cc1c[nH]c2ccccc12)C(=O)N[C@@H](CC(C)C)C(=O)N[C@@H](CC(C)C)C(=O)N[C@@H](C)C(=O)N[C@@H](CCC(N)=O)C(=O)N[C@@H](CCCNC(=N)N)C(=O)O)C(C)C)[C@@H](C)CC` [AT275] (H-GGTFISDYSIAMDRIK([AEEA-AEEA-γGlu-C16 diacid])QQDFVNWLLAQR-OH; N-terminus assumed), the IC50 at human GIP receptor [1] (setting [5]) came to 43 nM; on human GIP receptor [3], 126 nM. Also, the Emax at human GIP receptor [2] and at human GIP receptor [4] was 5% each time. Besides, the “cAMP antagonism, % inhib” value at human GIP receptor [3] came to 66%.
On to `CC[C@H](C)[C@H](NC(=O)[C@H](CO)NC(=O)[C@H](Cc1ccc(O)cc1)NC(=O)[C@H](CC(=O)O)NC(=O)[C@H](CO)NC(=O)[C@@H](NC(=O)[C@H](Cc1ccccc1)NC(=O)[C@@H](NC(=O)CNC(=O)[C@@H]1CCCN1)[C@@H](C)O)[C@@H](C)CC)C(=O)N[C@@H](C)C(=O)N[C@@H](CCSC)C(=O)N[C@@H](CC(=O)O)C(=O)N[C@@H](CCCNC(=N)N)C(=O)N[C@H](C(=O)N[C@@H](CCCCNC(=O)COCCOCCNC(=O)COCCOCCNC(=O)CC[C@H](NC(=O)CCCCCCCCCCCCCCC(=O)O)C(=O)O)C(=O)N[C@@H](CCC(N)=O)C(=O)N[C@@H](CCC(N)=O)C(=O)N[C@@H](CC(=O)O)C(=O)N[C@@H](Cc1ccccc1)C(=O)N[C@H](C(=O)N[C@@H](CC(N)=O)C(=O)N[C@@H](Cc1c[nH]c2ccccc12)C(=O)N[C@@H](CC(C)C)C(=O)N[C@@H](CC(C)C)C(=O)N[C@@H](C)C(=O)N[C@@H](CCC(N)=O)C(=O)N[C@@H](CCCNC(=N)N)C(=O)O)C(C)C)[C@@H](C)CC` [AT279] (H-PGTFISDYSIAMDRIK([AEEA-AEEA-γGlu-C16 diacid])QQDFVNWLLAQR-OH; N-terminus assumed), for which, at human GIP receptor [1] (setting [5]), the IC50 was 19 nM. Besides, the Emax was determined as 17% at human GIP receptor [2] and 14% on human GIP receptor [4]. For the same compound, the “cAMP antagonism, % inhib” value at human GIP receptor [3] is given as 81%.
With `CC[C@H](C)[C@H](NC(=O)[C@H](CO)NC(=O)[C@H](Cc1ccc(O)cc1)NC(=O)[C@H](CC(=O)O)NC(=O)[C@H](CO)NC(=O)[C@@H](NC(=O)[C@H](Cc1ccccc1)NC(=O)[C@@H](NC(=O)CNC(=O)[C@@H](N)CCC(=O)O)[C@@H](C)O)[C@@H](C)CC)C(=O)N[C@@H](C)C(=O)N[C@@H](CCSC)C(=O)N[C@@H](CC(=O)O)C(=O)N[C@@H](CCCNC(=N)N)C(=O)N[C@H](C(=O)N[C@@H](CCCCNC(=O)COCCOCCNC(=O)CC[C@H](NC(=O)CCCCCCCCCCCCCCC(=O)O)C(=O)O)C(=O)N[C@@H](CCC(N)=O)C(=O)N[C@@H](CCC(N)=O)C(=O)N[C@@H](CC(=O)O)C(=O)N[C@@H](Cc1ccccc1)C(=O)N[C@H](C(=O)N[C@@H](CC(N)=O)C(=O)N[C@@H](Cc1c[nH]c2ccccc12)C(=O)N[C@@H](CC(C)C)C(=O)N[C@@H](CC(C)C)C(=O)N[C@@H](C)C(=O)N[C@@H](CCC(N)=O)C(=O)N[C@@H](CCCNC(=N)N)C(N)=O)C(C)C)[C@@H](C)CC` [AT373] (HELM PEPTIDE1{E.G.T.F.I.S.D.Y.S.I.A.M.D.R.I.K.Q.Q.D.F.V.N.W.L.L.A.Q.R.[am]}|PEPTIDE2{[O=C(O)CCCCCCCCCCCCCCC(=O)[*:2]].[gGlu].[O=C(COCCOCCN[*:1])[*:2]]}$PEPTIDE1,PEPTIDE2,16:R3-3:R2$$$V2.0; N-terminus assumed), the IC50 was found to be 10 nM at human GIP receptor [1] (IC50-value (GIPR antagonism), Examples 1 and 2, values of Tables 1B and 2); 12.6 nM at human GIP receptor [3]. Further, the “cAMP antagonism, % inhib” value on human GIP receptor [1] (Table 1B, DiscoveRx) was 94%; on human GIP receptor [3], 91%. The “cAMP agonism, Emax” value at human GIP receptor [2] is reported as “No Agonism”. Further, the Emax on human GIP receptor [4] came out at 0%.
As to `CC[C@H](C)[C@H](NC(=O)[C@H](CO)NC(=O)[C@H](Cc1ccc(O)cc1)NC(=O)[C@H](CC(=O)O)NC(=O)[C@H](CO)NC(=O)[C@@H](NC(=O)[C@H](Cc1ccccc1)NC(=O)[C@@H](NC(=O)CNC(=O)[C@@H](N)CCC(=O)O)[C@@H](C)O)[C@@H](C)CC)C(=O)N[C@@H](C)C(=O)N[C@@H](CCSC)C(=O)N[C@@H](CC(=O)O)C(=O)N[C@@H](CCCNC(=N)N)C(=O)N[C@H](C(=O)N[C@@H](CCCCNC(=O)COCCOCCNC(=O)COCCOCCNC(=O)COCCOCCNC(=O)CC[C@H](NC(=O)CCCCCCCCCCCCCCC(=O)O)C(=O)O)C(=O)N[C@@H](CCC(N)=O)C(=O)N[C@@H](CCC(N)=O)C(=O)N[C@@H](CC(=O)O)C(=O)N[C@@H](Cc1ccccc1)C(=O)N[C@H](C(=O)N[C@@H](CC(N)=O)C(=O)N[C@@H](Cc1c[nH]c2ccccc12)C(=O)N[C@@H](CC(C)C)C(=O)N[C@@H](CC(C)C)C(=O)N[C@@H](C)C(=O)N[C@@H](CCC(N)=O)C(=O)N[C@@H](CCCNC(=N)N)C(N)=O)C(C)C)[C@@H](C)CC` [AT375] (H-EGTFISDYSIAMDRIK([AEEA-AEEA-AEEA-γGlu-C16 diacid])QQDFVNWLLAQR-NH2; N-terminus assumed), the “cAMP antagonism, % inhib” value at human GIP receptor [1] (Table 1B, DiscoveRx) amounted to 100%. Also, the “cAMP agonism, Emax” value on human GIP receptor [2] is “No Agonism”. On human GIP receptor [3], the “cAMP antagonism, % inhib” value turned out to be 83% and the IC50 turned out to be 23.3 nM. Besides, the Emax on human GIP receptor [4] worked out at 6%.
For `CC[C@H](C)[C@H](NC(=O)[C@H](CO)NC(=O)[C@H](Cc1ccc(O)cc1)NC(=O)[C@H](CC(=O)O)NC(=O)[C@H](CO)NC(=O)[C@@H](NC(=O)[C@H](Cc1ccccc1)NC(=O)[C@@H](NC(=O)CNC(=O)[C@@H](N)CCC(=O)O)[C@@H](C)O)[C@@H](C)CC)C(=O)N[C@@H](C)C(=O)N[C@@H](CCSC)C(=O)N[C@@H](CC(=O)O)C(=O)N[C@@H](CCCNC(=N)N)C(=O)N[C@H](C(=O)N[C@@H](CCCCNC(=O)COCCOCCNC(=O)CC[C@H](NC(=O)CCCCCCCCCCCCCCCCC(=O)O)C(=O)O)C(=O)N[C@@H](CCC(N)=O)C(=O)N[C@@H](CCC(N)=O)C(=O)N[C@@H](CC(=O)O)C(=O)N[C@@H](Cc1ccccc1)C(=O)N[C@H](C(=O)N[C@@H](CC(N)=O)C(=O)N[C@@H](Cc1c[nH]c2ccccc12)C(=O)N[C@@H](CC(C)C)C(=O)N[C@@H](CC(C)C)C(=O)N[C@@H](C)C(=O)N[C@@H](CCC(N)=O)C(=O)N[C@@H](CCCNC(=N)N)C(N)=O)C(C)C)[C@@H](C)CC` [AT376] (HELM PEPTIDE1{E.G.T.F.I.S.D.Y.S.I.A.M.D.R.I.K.Q.Q.D.F.V.N.W.L.L.A.Q.R.[am]}|PEPTIDE2{[O=C(O)CCCCCCCCCCCCCCCCC(=O)[*:2]].[gGlu].[O=C(COCCOCCN[*:1])[*:2]]}$PEPTIDE1,PEPTIDE2,16:R3-3:R2$$$V2.0; N-terminus assumed), the “cAMP antagonism, % inhib” value was found to be 90% at human GIP receptor [1] (Table 1B, DiscoveRx) and 87% on human GIP receptor [3]. Besides, the IC50 was determined as 19 nM on human GIP receptor [1] (setting [5]) and 6.81 nM at human GIP receptor [3]. Moreover, the “cAMP agonism, Emax” value at human GIP receptor [2] is “No Agonism”. Moreover, the Emax on human GIP receptor [4] worked out at 0%.
